Measured values: patent US8354381B2, “Peptide compositions for oral care systems” (E I du Pont de Nemours and Company, priority 2009, dated 2013)

Key:
[1] = Phage ELISA, bovine enamel-binding assay; details: over 10^10 pfu phage, unpolished bovine enamel, A450
Protocol: (§1) A total of 11 selected phage candidates (Example 3) was used in a phage ELISA experiment. Purified phage lysates were used for binding to the enamel blocks using an anti-M13 phage antibody conjugated to horseradish-peroxidase, followed by the addition of chromogenic agent TMB. The plates were read at A450 nm.
(§2) For each phage candidate to be tested, the polished and unpolished enamel blocks were incubated for 1 h at room temperature with 200 μL of blocking buffer, consisting of 2% non-fat dry milk (Schleicher & Schuell, Inc.) in TBS. […] The tube was rinsed 6 times with wash buffer consisting of TBST-0.05%. The wells were filled with 200 μL of TBST-0.5% containing 1 mg/mL BSA and then 10 μL (over 10^10 pfu) of purified phage stock was added. The samples were incubated at room temperature for 60 min with slow shaking. The non-binding phage was removed by washing 6 times with TBST-0.5%. […] The conjugate solution was removed and was washed 6 times with TBST-0.5%. […] BoEn P means bovine polished enamel and BoEn means bovine enamel.

[2] = Phage ELISA, bovine polished enamel-binding assay; details: over 10^10 pfu phage, A450
Protocol: as §1, §2

[3] = tested on: pellicle coated bovine enamel; assay: Phage ELISA on pellicle coated bovine enamel (Example 6); type: binding, human; details: 10^11 pfu phage, 30 min in vivo pellicle on bovine enamel, normalized to an internal control
Protocol: A total of 29 selected phage candidates from Table 5 were used in phage ELISA Experiment to determine binding affinity and coverage of each phage on pellicle substrates. Purified phage lysates were used for binding to pellicle coated bovine enamel using an anti-M13 phage antibody conjugated to horseradish-peroxidase, followed by the addition of chromogenic agent TMB. The plates were read at A450 nm.
The wells were filled with 1 mL of 10^11 pfu purified phage stock which was prepared by diluting in blocking buffer. […] The non-binding phage was removed by washing 5 times with PBST. […] The conjugate solution was removed and was washed 3 times with PBST.

[4] = tested on: pellicle coated bovine enamel; assay: Phage ELISA of brushed 8 hr pellicle candidates, screened with 30 min in vivo pellicle (Example 8); type: binding, human; details: 10^11 pfu phage, 30 min in vivo pellicle on bovine enamel, normalized to DenP3
Protocol: A total of 18 selected phage candidates were used in a phage ELISA Experiment. Purified phage lysates were used for binding to pellicle coated bovine enamel using an anti-M13 phage antibody conjugated to horseradish-peroxidase, followed by the addition of chromogenic agent TMB. The plates were read at A450 nm.
The wells were rinsed 2 times with wash buffer consisting of PBST. The wells were filled with 1 mL of 10^11 pfu purified phage stock which was prepared by diluting in blocking buffer. […] The non-binding phage was removed by washing 5 times with PBST. Then, 500 μL of horseradish peroxidase/anti-M13 antibody conjugate (Amersham USA, Piscataway, N.J.), diluted 1:500 in the blocking buffer, was added and incubated for 45 min at room temperature. The conjugate solution was removed and was washed 5 times with PBST.

[5] = Peptide-mediated deposition of Co-NTA beads on bovine enamel, SEM; type: binding; details: 20 μM peptide; for Particles per um^2 at 5000X: then Co-NTA TALON beads, SEM at 5000X
Excerpt: Bovine enamel incisors were obtained from SE Dental (Baton Rouge, La.). Teeth were sectioned and cut into enamel slabs approx. 5 mm on each side using a DREMEL® rotary (Robert Bosch LLC, Farmington Hills, Mich.) saw with a diamond blade. The enamel slabs were cleaned and embedded in a well plate contained molding material so as to only expose the enamel surface in the well.
Polystyrene beads with cobalt-NTA coating (DYNABEADS® TALON®) were obtained from Invitrogen (item#101.02D) as a slurry of 40 mg/mL. The slurry (50 μL; 2 mg beads) was resuspended and washed with 700 μL of binding buffer (50 mM sodium phosphate, pH 8.0, 300 mM NaCI, 0.01% TWEEN® 20) in preparation for His6 binding.
Peptides were dissolved in phosphate buffered saline (Pierce, pH 7.2) at a concentration of 20 μM. Peptide solution (500 μL) was placed in each well containing an enamel slab. Enamel slabs exposed to only PBS in this step were used as a control. Samples were incubated with peptide solution with gentle agitation for 30 min. The peptide solution and PBS were removed from the well plate and each well was rinsed 3 times with repeated additions of PBS. TALON® beads (50 μL) were added to each well and incubated with gentle agitation for 30 min. The TALON® solution was removed and the samples were washed three times with the same binding buffer.
Each enamel sample was removed from the well plate and rinsed again with buffer. […] The enamel slabs were further examined by Electron Microscopy (Hitachi TM-1000 Tabletop SEM Microscope) at 1000×, 2500× and 5000× magnification. […] Little to no beads were found on the no peptide control. […]

[6] = tested on: pellicle-coated enamel substrates; assay: Tooth whitening with sequentially applied peptide and silica-coated TiO2, colour measurement; set-up: species or system bovine; details: 20 μM peptide 30 min, then 1% silica-coated TiO2 30 min; three replicate teeth
Protocol: Silica-coated rutile titanium dioxide (Luce II WW) was obtained from US Cosmetics Corp. (Dayville, Conn.). A 12 wt % solution of the pigment was prepared with Millipore water. The solution was dispersed by horn sonication using a Branson Sonifier 150 at 10 W. The solution was sonicated in an ice bath for 6 min total, with 2 min sonication intervals. A working solution of 1 wt % in 10 mM sodium phosphate buffer at pH7.2 was made for application to peptide coated enamel. A 0.01% solution of this dispersion diluted in the same buffer was measured on a Malvern Zetasizer Nano dynamic light scattering instrument.
Bovine enamel incisors were obtained from SE Dental (Baton Rouge, La.). Teeth were sectioned and cut into enamel slabs approx. 7 mm on each side using a DREMEL® saw with a diamond blade. The enamel slabs were cleaned and lightly polished to remove surface debris. The enamel was pretreated with a mixture of coffee and tea in order to stain to a color similar to human stained teeth. Each enamel block was then mounted on wax mounting and sterilized with ethylene oxide. […] The mounted enamel blocks were brushed with a toothbrush and a 1:2 dilution of COLGATE® MAXFRESH® toothpaste (Colgate-Palmolive Co., New York, N.Y.) and then reinserted into the mouth for 1 minute. […] Each pellicle coated enamel slab was measured for color using a Konica-Minolta 2600d integrating sphere spectrophotometer.
Peptides listed in Table 15 were dissolved into pH 7.2 PBS buffer at a concentration of 20 μM. Three replicate teeth were used for each experimental condition. Each tooth was incubated with peptide solution for 30 min or buffer alone as a control. The enamel blocks were removed from the peptide solution and rinsed with PBS buffer. The enamel blocks were then incubated in the 1% solution of silica-coated TiO2 for 30 min. The enamel blocks were removed, rinsed with 10 mM phosphate buffer and blotted dry. Each substrate was measured for color (L, a*, b*, C*, h) values. The total color difference, Delta E*ab and the Metric Hue Difference, Delta H*ab, for the whitening process were calculated using equations (1) and (2) below: Delta E*ab=((L*1−L*2)^2+(a*1−a*2)^2+(b*1−b*2)^2)^1/2 (1) Delta H*ab=(2(C*1C*2−a*1a*2−b*1b*2))^1/2 (2) where L*=the lightness variable, a* and b* are the chromaticity coordinates and C* is the chroma of CIELAB colorspace as defined by the International Commission of Illumination (CIE) and described in ASTM D2244-09b and subscript 1 denotes the initial color value and subscript 2 denotes the final color value.

In the case of “YSETPNDQKPNPHYKVSGTK (Synthetic oral-surface binding peptide) [BoEn 10]”, the O.D.450 [1] is reported as 3.942.

Work on “VGTMKQHPTTTQPPRVSATN (Synthetic oral-surface binding peptide) [BoEn 9]” yielded an O.D.450 [1] of 0.568.

Work on “GYCLRGDEPAVCSG (Synthetic oral-surface binding peptide) [BoEn P3]” yielded an O.D.450 [2] of 0.665.

“EPPTRTRVNNHTVTVQAQQH (Synthetic oral-surface binding peptide) [BoEn P2]” gave an O.D.450 [2] of 0.641.

Molecule “NFCETQLDLSVCTV (Synthetic oral-surface binding peptide) [BoEn P5]” has an O.D.450 [2] of 0.797.

For “LNDQRKPGPPTMPTHSPAVG (Synthetic oral-surface binding peptide) [BoEn 5]”, the O.D.450 [1] was 0.944.

In the case of “TTYHYKNIYQESYQQRNPAV (Synthetic oral-surface binding peptide) [DenP3]”, the “O.D.450 (normalized)” value [3] is reported as 2.495 and the “O.D.450 (normalized)” value [4] is reported as 1.000.

For “PHMASMTGGQQMGSYSETPNDQKPNPHYKVSGTKGPEEAAKKEEAAKKPAYSETPNDQKPNPHYKVSGTKGSGGGGSGSGGGGSLNSMSDKHHGHQNTATRNQHGGGLNSMSDKHHGHQNTATRNQHGGHHHHHH [DE008]”, the “Particles per um^2 at 5000X” value [5] was 0.31 Particles per um^2.

“NTCQPTKNATPCSA (Synthetic oral-surface binding peptide) [BoEn P6]” gave an O.D.450 [2] of 0.83.

Molecule “THNMSHFPPSGHPKRTAT (Synthetic oral-surface binding peptide) [BoEn P8]” has an O.D.450 [2] of 2.02.

Molecule “AANPHTEWDRDAFQLAMPPK (Synthetic oral-surface binding peptide) [BoEn 1]” has an O.D.450 [1] of 1.402.

In the case of “NTCATSPNSYTCSN (Synthetic oral-surface binding peptide) [BoEn 6]”, the O.D.450 [1] is reported as 2.38.

For “SDCTAGLVPPLCAT (Synthetic oral-surface binding peptide) [BoEn 7]”, the O.D.450 [1] was 0.892.

B1: PGSGGGGSPYSETPNDQKPNPHYKVSGTKGPEEAAKKEEAAKKPAYSETPNDQKPNPHYKVSGTKGPGGHHHHHH (peptide)
chain: PGSGGGGSPYSETPNDQKPNPHYKVSGTKGPEEAAKKEEAAKKPAYSETPNDQKPNPHYKVSGTKGPGGHHHHHH
modifications: Synthetic peptide composition
In the case of B1, the “Bead coverage by electron microscopy (in words)” value ([5]; Co-NTA beads, SEM 1000×, 2500×, 5000×) is reported as “bead binding at a lower degree than the other samples” and the “Particles per um^2 at 5000X” value [5] is reported as 0.17 Particles per um^2.

B2: PGSGGGGSPYSETPNDQKPNPHYKVSGTKGPEPEPEPEPIPEPPKEAPVVIEKPKPKPKPKPKPPAYSETPNDQKPNPHYKVSGTKGPGGHHHHHH (peptide)
chain: PGSGGGGSPYSETPNDQKPNPHYKVSGTKGPEPEPEPEPIPEPPKEAPVVIEKPKPKPKPKPKPPAYSETPNDQKPNPHYKVSGTKGPGGHHHHHH
modifications: Synthetic peptide composition
In the case of B2, the “Particles per um^2 at 5000X” value [5] is reported as 0.39 Particles per um^2.

B3: PGSGGGGSPYSETPNDQKPNPHYKVSGTKGGGYSETPNDQKPNPHYKVSGTKGGGYSETPNDQKPNPHYKVSGTKGPGGHHHHHH (peptide)
chain: PGSGGGGSPYSETPNDQKPNPHYKVSGTKGGGYSETPNDQKPNPHYKVSGTKGGGYSETPNDQKPNPHYKVSGTKGPGGHHHHHH
modifications: Synthetic peptide composition
For B3, the “Particles per um^2 at 5000X” value [5] was 0.44 Particles per um^2.

B4: PSSSRPTTYHYKNIYQESYQQRNPAVGPEEAAKKEEAAKKPASSRPTTYHYKNIYQESYQQRNPAVGPHHHHHH (peptide)
chain: PSSSRPTTYHYKNIYQESYQQRNPAVGPEEAAKKEEAAKKPASSRPTTYHYKNIYQESYQQRNPAVGPHHHHHH
With B4 the “Delta E*ab Avg” value [6] was 6.78 and the “Delta H*ab Avg” value [6] was 1.60.

B5: PSSRPTTYHYKNIYQESYQQRNPAVGPEEAAKKEEAAKKPASSRPTTYHYKNIYQESYQQRNPAVGSSGPGSSKQPNKQPNKQPNKQPNKQPNKQPNKQPNKQPNKQPNGPHHHHHH (peptide)
chain: PSSRPTTYHYKNIYQESYQQRNPAVGPEEAAKKEEAAKKPASSRPTTYHYKNIYQESYQQRNPAVGSSGPGSSKQPNKQPNKQPNKQPNKQPNKQPNKQPNKQPNKQPNGPHHHHHH
For B5, the “Delta E*ab Avg” value [6] was 10.70 and the “Delta H*ab Avg” value [6] was 2.93.
